Source: US8703961B2, “Thiazole derivatives for the treatment of diseases such as cancer” (Merck Patent GmbH, priority 2009, dated 2014)

Assays:
Test in all cases: filter binding kinase assay
Assay type in all cases: biochemical
AURKB = target: T1, AURKB (Homo sapiens, UniProt Q96GD4); settings: derived from % inhibition at 1 μM
T1 construct: purchased
How it was run: (§1)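 Kinase activity is measured at room temperature by filter binding, with incorporated radiolabel counted after acid termination. A 5-minute preincubation of compound, enzyme and substrate precedes addition of ATP from a kinase-dependent stock (5, 20 or 50 […]).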

CAMK1 = target: T2, CAMK1 (Homo sapiens, UniProt Q14012); settings: derived from % inhibition at 1 μM
T2 construct: purchased
How it was run: as §1

CAMKK2 = target: T3, CAMKK2 (Homo sapiens, UniProt Q96RR4); settings: derived from % inhibition at 1 μM
T3 construct: purchased
T3 sequence (Q96RR4 whole entry, species assumed): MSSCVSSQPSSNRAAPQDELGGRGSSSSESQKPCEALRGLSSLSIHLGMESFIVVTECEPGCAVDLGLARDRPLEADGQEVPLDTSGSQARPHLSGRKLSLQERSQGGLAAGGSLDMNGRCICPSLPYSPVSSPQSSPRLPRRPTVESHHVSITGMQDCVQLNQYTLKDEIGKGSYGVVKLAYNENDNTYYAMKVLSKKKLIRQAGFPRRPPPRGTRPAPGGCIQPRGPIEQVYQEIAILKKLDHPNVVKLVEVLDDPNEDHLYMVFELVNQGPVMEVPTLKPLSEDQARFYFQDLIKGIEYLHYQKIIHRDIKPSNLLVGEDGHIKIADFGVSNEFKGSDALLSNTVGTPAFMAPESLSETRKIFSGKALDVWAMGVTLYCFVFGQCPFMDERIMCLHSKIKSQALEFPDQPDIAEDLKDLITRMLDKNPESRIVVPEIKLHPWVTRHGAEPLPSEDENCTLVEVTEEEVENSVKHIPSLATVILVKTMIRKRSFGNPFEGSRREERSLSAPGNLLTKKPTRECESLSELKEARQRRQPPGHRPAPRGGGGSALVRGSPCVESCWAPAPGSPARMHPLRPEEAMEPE
How it was run: as §1

EEF2K = target: T4, EEF2K (Homo sapiens, UniProt O00418); settings: derived from % inhibition at 1 μM
T4 construct: purchased
How it was run: as §1

GSK3B (GSK3b) = target: T5, GSK3B (GSK3b) (Homo sapiens, UniProt P49841); settings: for IC50: derived from % inhibition at 1 μM
T5 construct: purchased
T5 sequence (P49841 whole entry, species assumed): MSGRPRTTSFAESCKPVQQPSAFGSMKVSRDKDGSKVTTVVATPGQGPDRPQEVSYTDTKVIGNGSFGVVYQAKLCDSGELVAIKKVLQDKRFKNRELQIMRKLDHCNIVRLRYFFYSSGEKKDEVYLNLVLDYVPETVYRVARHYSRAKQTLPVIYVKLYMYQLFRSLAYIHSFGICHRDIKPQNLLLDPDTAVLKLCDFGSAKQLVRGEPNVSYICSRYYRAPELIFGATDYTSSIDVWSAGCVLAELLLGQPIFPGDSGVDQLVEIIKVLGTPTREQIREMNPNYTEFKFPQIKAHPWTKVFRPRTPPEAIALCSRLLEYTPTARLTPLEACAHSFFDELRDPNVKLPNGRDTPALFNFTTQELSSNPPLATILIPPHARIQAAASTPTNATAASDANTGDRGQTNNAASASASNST
How it was run: as §1

IKBKE = target: T6, IKBKE (Homo sapiens, UniProt Q14164); settings: derived from % inhibition at 1 μM
T6 construct: purchased
T6 sequence (Q14164 1-716): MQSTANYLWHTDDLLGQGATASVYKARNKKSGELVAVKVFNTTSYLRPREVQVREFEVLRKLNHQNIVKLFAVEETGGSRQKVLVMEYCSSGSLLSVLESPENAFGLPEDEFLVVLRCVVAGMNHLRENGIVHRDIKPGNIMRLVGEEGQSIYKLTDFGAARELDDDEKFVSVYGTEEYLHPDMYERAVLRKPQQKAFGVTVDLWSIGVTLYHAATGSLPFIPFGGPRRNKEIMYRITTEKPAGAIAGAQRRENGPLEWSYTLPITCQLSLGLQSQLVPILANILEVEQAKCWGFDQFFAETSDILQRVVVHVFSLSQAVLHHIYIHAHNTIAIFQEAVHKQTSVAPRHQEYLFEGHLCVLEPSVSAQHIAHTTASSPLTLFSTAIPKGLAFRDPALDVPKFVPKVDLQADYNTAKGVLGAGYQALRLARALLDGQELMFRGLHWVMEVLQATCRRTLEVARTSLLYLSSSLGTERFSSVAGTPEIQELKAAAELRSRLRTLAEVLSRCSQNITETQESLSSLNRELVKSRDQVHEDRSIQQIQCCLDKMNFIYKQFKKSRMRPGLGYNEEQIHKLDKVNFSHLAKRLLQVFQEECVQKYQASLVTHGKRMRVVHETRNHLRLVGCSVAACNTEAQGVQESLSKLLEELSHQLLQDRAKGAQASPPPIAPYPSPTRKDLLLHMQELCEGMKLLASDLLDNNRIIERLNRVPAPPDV
How it was run: as §1

MAP3K11 (MLK3) = target: T7, MAP3K11 (MLK3) (Homo sapiens, UniProt Q16584); settings: for IC50: derived from % inhibition at 1 μM
T7 construct: purchased
How it was run: as §1

MAPKAPK2 = target: T8, MAPKAPK2 (Homo sapiens, UniProt P49137); settings: derived from % inhibition at 1 μM
T8 construct: purchased
T8 sequence (P49137 whole entry, species assumed): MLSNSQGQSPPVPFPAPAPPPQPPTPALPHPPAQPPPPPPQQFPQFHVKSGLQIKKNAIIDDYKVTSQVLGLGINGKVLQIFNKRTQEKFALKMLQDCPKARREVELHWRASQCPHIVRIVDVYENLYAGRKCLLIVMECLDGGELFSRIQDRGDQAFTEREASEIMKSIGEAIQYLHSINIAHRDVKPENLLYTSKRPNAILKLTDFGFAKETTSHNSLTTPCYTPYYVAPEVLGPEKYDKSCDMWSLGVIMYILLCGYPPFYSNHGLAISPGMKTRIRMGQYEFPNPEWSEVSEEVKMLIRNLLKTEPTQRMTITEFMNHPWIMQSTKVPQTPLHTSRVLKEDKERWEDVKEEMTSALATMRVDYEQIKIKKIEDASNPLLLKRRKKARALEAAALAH
How it was run: as §1

MELK = target: T9, MELK (Homo sapiens, UniProt Q14680); settings: derived from % inhibition at 1 μM
T9 construct: purchased
T9 sequence (Q14680 whole entry, species assumed): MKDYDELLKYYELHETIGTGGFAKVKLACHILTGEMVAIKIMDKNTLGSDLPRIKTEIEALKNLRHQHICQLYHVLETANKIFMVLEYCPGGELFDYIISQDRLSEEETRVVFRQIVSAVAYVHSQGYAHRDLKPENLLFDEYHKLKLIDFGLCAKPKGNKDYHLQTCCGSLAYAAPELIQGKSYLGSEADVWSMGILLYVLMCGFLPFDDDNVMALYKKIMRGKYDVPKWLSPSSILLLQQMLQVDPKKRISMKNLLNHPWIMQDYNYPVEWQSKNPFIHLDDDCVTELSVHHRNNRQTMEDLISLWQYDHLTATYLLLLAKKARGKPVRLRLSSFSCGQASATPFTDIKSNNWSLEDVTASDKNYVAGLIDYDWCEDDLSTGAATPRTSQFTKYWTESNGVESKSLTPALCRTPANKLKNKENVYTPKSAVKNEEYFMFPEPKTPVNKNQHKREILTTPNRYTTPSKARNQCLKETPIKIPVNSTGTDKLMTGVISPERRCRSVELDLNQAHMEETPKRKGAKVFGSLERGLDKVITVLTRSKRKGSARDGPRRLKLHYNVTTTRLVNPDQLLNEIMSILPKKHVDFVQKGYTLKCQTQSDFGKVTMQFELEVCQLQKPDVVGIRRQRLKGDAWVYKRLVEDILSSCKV
How it was run: as §1

MKNK2 = target: T10, MKNK2 (Homo sapiens, UniProt Q9HBH9); settings: derived from % inhibition at 1 μM
T10 construct: purchased
T10 sequence (Q9HBH9 whole entry, species assumed): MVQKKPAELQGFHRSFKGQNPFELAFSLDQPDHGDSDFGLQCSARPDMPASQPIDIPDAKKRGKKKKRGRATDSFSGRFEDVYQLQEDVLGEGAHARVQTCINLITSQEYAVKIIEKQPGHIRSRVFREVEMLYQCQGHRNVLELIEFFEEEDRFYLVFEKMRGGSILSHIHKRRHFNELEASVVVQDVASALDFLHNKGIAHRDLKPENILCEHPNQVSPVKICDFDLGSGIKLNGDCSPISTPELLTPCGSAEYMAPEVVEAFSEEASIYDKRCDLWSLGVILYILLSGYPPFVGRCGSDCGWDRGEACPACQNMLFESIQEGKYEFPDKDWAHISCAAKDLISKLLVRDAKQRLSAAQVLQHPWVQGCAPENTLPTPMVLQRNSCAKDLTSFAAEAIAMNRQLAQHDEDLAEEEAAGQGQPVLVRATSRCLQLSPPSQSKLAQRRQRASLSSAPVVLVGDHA
How it was run: as §1

PIM2 = target: T11, PIM2 (Homo sapiens, UniProt Q9P1W9); settings: derived from % inhibition at 1 μM
T11 construct: purchased
T11 sequence (Q9P1W9 whole entry, species assumed): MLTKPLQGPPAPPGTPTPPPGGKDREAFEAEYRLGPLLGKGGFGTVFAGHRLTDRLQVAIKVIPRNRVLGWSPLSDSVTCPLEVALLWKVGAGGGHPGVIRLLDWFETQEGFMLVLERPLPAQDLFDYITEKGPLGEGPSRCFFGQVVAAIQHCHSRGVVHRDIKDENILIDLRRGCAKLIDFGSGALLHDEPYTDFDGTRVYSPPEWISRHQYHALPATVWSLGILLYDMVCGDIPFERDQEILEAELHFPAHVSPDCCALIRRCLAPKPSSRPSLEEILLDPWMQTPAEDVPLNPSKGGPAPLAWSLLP
How it was run: as §1

PKN2 (PRK2) = target: T12, PKN2 (PRK2) (Homo sapiens, UniProt Q16513); settings: for IC50: derived from % inhibition at 1 μM
T12 construct: purchased
T12 sequence (Q16513 whole entry, species assumed): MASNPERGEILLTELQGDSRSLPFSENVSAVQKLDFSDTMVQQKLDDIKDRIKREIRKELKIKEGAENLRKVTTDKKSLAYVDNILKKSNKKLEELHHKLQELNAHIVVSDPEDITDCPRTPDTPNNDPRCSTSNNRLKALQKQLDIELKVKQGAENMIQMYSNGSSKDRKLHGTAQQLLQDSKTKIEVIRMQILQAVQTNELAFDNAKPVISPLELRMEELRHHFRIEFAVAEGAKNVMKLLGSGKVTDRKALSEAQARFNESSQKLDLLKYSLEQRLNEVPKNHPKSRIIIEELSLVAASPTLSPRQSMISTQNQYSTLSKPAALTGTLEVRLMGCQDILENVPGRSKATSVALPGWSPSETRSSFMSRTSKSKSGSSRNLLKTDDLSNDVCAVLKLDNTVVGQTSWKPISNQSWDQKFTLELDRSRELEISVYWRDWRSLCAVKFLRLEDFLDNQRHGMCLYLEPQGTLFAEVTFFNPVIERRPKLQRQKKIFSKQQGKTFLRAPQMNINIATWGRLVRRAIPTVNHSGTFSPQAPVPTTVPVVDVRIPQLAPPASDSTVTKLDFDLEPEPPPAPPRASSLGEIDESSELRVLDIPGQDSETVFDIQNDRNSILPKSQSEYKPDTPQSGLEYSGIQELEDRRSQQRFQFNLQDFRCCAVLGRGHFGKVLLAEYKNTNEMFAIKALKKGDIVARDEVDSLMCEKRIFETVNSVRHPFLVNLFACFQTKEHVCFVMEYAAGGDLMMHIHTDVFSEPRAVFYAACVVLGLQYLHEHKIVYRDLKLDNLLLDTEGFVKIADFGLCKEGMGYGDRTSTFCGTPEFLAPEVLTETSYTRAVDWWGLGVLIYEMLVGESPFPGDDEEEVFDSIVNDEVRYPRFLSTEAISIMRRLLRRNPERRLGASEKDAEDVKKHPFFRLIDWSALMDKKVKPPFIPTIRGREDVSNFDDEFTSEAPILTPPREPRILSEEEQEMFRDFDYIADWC
How it was run: as §1

SRC = target: T13, SRC (Homo sapiens, UniProt P12931); settings: derived from % inhibition at 1 μM
T13 construct: purchased
T13 sequence (P12931 whole entry, species assumed): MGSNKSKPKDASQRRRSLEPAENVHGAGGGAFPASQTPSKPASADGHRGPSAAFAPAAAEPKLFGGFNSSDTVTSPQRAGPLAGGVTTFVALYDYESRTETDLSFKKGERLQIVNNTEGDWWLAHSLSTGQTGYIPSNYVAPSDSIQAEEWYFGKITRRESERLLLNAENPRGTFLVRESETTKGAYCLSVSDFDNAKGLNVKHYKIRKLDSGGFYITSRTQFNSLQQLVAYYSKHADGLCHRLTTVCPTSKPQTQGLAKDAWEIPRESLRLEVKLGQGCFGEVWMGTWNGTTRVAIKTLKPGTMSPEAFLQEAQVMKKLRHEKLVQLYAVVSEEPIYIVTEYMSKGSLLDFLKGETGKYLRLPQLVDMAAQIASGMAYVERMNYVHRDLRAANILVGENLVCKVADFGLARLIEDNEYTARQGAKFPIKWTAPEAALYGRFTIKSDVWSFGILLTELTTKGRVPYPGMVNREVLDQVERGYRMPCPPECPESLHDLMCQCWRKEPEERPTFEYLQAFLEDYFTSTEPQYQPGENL
How it was run: as §1

TTK = target: T14, TTK (Homo sapiens, UniProt P33981); settings: derived from % inhibition at 1 μM
T14 construct: purchased
T14 sequence (P33981 1-857): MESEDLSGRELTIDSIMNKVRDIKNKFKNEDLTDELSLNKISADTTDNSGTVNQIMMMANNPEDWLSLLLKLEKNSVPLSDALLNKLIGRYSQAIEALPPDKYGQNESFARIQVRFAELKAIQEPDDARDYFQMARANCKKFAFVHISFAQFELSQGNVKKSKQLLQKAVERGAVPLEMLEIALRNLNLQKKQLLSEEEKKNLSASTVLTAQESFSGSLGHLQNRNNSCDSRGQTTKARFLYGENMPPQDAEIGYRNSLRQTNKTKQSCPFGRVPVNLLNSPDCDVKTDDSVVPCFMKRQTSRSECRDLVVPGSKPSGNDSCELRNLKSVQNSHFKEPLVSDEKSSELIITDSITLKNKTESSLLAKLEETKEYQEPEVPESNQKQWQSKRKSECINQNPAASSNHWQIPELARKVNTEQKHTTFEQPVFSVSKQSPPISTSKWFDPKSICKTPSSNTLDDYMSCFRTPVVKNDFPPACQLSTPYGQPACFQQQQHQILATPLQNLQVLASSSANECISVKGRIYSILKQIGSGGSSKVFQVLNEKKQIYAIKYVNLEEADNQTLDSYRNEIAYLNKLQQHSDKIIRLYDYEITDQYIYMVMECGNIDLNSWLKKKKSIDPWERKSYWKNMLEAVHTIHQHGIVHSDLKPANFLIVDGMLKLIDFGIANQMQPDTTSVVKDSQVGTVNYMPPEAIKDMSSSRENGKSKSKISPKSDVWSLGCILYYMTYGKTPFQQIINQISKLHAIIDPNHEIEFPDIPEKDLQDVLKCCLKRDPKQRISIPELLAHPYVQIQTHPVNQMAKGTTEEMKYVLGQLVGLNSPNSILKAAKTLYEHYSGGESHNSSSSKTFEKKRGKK
How it was run: as §1

T1 sequence (Q96GD4 whole entry, species assumed): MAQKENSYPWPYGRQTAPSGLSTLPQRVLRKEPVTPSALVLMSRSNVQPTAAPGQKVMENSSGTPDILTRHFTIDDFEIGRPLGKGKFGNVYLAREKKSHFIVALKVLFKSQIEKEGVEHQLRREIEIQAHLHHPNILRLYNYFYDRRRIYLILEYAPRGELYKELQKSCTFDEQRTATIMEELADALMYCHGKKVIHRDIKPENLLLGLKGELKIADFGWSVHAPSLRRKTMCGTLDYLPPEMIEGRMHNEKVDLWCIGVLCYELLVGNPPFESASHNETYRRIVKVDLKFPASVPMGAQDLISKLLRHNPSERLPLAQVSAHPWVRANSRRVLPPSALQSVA

SMILES: c1ccc(Cc2c[nH]c3ncsc23)cc1 [Compound A7, 6-benzyl-4H-pyrrolo[2,3-d]thiazole]
- IC50 (AURKB): 1 to 10 µM
- IC50 (CAMK1): 1 to 10 µM
- IC50 (CAMKK2): 10 to 100 µM
- IC50 (EEF2K): 10 to 100 µM
- IC50 (GSK3B (GSK3b)): 1000 to 10000 nM
- IC50 (IKBKE): 10 to 100 µM
- IC50 (MAP3K11 (MLK3)): 10 to 100 µM
- IC50 (MAPKAPK2): > 1 µM
- IC50 (MELK): 1000 to 10000 nM
- IC50 (MKNK2): > 1000 nM
- IC50 (PIM2): > 1 µM
- IC50 (PKN2 (PRK2)): 1000 to 10000 nM
- IC50 (SRC): 1 to 10 µM
- IC50 (TTK): 10 to 100 µM

SMILES: Nc1ncsc1C#Cc1cnc2[nH]ccc2c1 [Compound A22, 5-(1H-pyrrolo[2,3-b]pyridin-5-ylethynyl)thiazol-4-ylamine]
- IC50 (AURKB): 10 to 100 µM
- IC50 (CAMK1): 10 to 100 µM
- IC50 (CAMKK2): > 1 µM
- IC50 (EEF2K): 10 to 100 µM
- IC50 (GSK3B (GSK3b)): 10 to 1000 nM
- remaining activity at 1 µM (GSK3B (GSK3b); read-out: residual kinase activity GSK3b): 9%
- IC50 (IKBKE): > 1 µM
- IC50 (MAP3K11 (MLK3)): 0.01 to 1 µM
- remaining activity at 1 µM (MAP3K11 (MLK3); read-out: residual kinase activity MLK3): 23%
- IC50 (MAPKAPK2): > 1 µM
- IC50 (MELK): > 1000 nM
- IC50 (MKNK2): > 1000 nM
- IC50 (PIM2): 10 to 100 µM
- IC50 (PKN2 (PRK2)): 10 to 1000 nM
- remaining activity at 1 µM (PKN2 (PRK2); read-out: residual kinase activity PRK2): 38%
- IC50 (SRC): 10 to 100 µM
- IC50 (TTK): 10 to 100 µM

SMILES: Nc1ncsc1C#Cc1cccc(O)c1 [Compound A27, 3-(4-aminothiazol-5-ylethynyl)phenol]
- IC50 (AURKB): 10 to 100 µM
- IC50 (CAMK1): 1 to 10 µM
- IC50 (CAMKK2): 10 to 100 µM
- IC50 (EEF2K): 1 to 10 µM
- IC50 (GSK3B (GSK3b)): 1000 to 10000 nM
- IC50 (IKBKE): > 1 µM
- IC50 (MAP3K11 (MLK3)): 10 to 100 µM
- IC50 (MAPKAPK2): 10 to 100 µM
- IC50 (MELK): 1000 to 10000 nM
- IC50 (MKNK2): > 1000 nM
- IC50 (PIM2): 1 to 10 µM
- IC50 (PKN2 (PRK2)): 10000 to 100000 nM
- IC50 (SRC): 1 to 10 µM
- IC50 (TTK): 10 to 100 µM

SMILES: CC(C)(C)OC(=O)Nc1ncsc1C#CCN1C(=O)c2ccccc2C1=O [Compound A26, tert-butyl{5-[3-(1,3-dioxo-1,3-dihydroisoindol-2-yl)prop-1-ynyl]-thiazol-4-yl}carbamate]
- IC50 (AURKB): > 1 µM
- IC50 (CAMK1): > 1 µM
- IC50 (CAMKK2): 10 to 100 µM
- IC50 (EEF2K): 10 to 100 µM
- IC50 (GSK3B (GSK3b)): 1000 to 10000 nM
- IC50 (IKBKE): 10 to 100 µM
- IC50 (MAP3K11 (MLK3)): 1 to 10 µM
- IC50 (MAPKAPK2): 10 to 100 µM
- IC50 (MELK): > 1000 nM
- IC50 (MKNK2): 10000 to 100000 nM
- IC50 (PIM2): > 1 µM
- IC50 (PKN2 (PRK2)): 1000 to 10000 nM
- IC50 (SRC): 10 to 100 µM
- IC50 (TTK): 10 to 100 µM

SMILES: CC(C)(C)OC(=O)Nc1nc(-c2ccncc2)sc1C#CCN1CCOCC1 [Compound A25, tert-butyl[5-(3-morpholin-4-ylprop-1-ynyl)-2-pyridin-4-ylthiazol-4-yl]-carbamate]
- IC50 (AURKB): > 1 µM
- IC50 (CAMK1): 1 to 10 µM
- IC50 (CAMKK2): > 1 µM
- IC50 (EEF2K): > 1 µM
- IC50 (GSK3B (GSK3b)): > 1000 nM
- IC50 (IKBKE): 1 to 10 µM
- IC50 (MAP3K11 (MLK3)): > 1 µM
- IC50 (MAPKAPK2): > 1 µM
- IC50 (MELK): > 1000 nM
- IC50 (MKNK2): > 1000 nM
- IC50 (PIM2): 1 to 10 µM
- IC50 (PKN2 (PRK2)): > 1000 nM
- IC50 (SRC): 1 to 10 µM
- IC50 (TTK): 10 to 100 µM
